The text below walks through data of patent US10239873B2, “7-azaindole or 4,7-diazaindole derivatives as IKKϵ epsilon and TBK1 inhibitor and pharmaceutical composition comprising same” (GREEN CROSS CORPORATION, priority 2015, dated 2019).

SMILES strings stand for the structures.

In the experiment the target is T1, TBK1 (Homo sapiens, UniProt Q9UHD2).
T1 construct: purchased Promega (Invitrogen is also named in the same bracket) V4158; PR8031B; V3991 (not assigned to the two kinases)
T1 sequence (Q9UHD2 1-729): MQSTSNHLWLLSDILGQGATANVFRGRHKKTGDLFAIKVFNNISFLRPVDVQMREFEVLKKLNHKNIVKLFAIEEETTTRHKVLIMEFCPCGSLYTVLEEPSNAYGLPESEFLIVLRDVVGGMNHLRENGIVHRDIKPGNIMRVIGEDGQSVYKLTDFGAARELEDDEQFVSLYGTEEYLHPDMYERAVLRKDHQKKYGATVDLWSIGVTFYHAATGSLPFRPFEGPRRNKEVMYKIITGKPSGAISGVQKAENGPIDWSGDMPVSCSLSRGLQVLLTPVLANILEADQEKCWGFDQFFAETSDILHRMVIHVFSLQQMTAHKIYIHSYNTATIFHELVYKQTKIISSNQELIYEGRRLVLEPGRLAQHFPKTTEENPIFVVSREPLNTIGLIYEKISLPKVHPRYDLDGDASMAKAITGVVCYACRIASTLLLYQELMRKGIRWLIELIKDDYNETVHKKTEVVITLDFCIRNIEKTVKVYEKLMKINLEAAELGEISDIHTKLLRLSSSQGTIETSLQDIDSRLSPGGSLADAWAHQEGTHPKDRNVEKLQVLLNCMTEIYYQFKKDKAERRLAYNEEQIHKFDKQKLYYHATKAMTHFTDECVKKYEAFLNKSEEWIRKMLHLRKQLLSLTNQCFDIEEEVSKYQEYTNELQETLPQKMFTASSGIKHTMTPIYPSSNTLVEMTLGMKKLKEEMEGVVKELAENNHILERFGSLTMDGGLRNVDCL
Put plainly: ADP-Glo Kinase Assay, inhibition activity on TBK1. The experiment is classed as biochemical. The procedure, abridged: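 In 40 mM Tris pH 7.5 with 20 mM MgCl2 and 0.1 mg/mL BSA, each enzyme (IKKε or TBK1 kinase system) was run according to the manufacturer's protocol. ADP formed was detected by ADP-Glo luminescence.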
In general terms: ADP-Glo turns the ADP formed in a reaction into a luminescent signal.
As usually defined, the IC50 is the concentration that inhibits the measured activity by half. Low readings indicate greater potency in that assay, high ones weaker potency in that assay. On to `NS(=O)(=O)c1ccc(-c2cnc3[nH]cc(C4=CCN(C(=O)OC5CCCC5)CC4)c3c2)cc1` [Example 176, Cyclopentyl 4-(5-(4-sulfamoylphenyl)-1H-pyrrolo[2,3-b]pyridin-3-yl)-5,6-dihydropyridine-1(2H)-carboxylate], for which half-maximal inhibition (IC50) was put at 52 nM. Under `CNS(=O)(=O)c1cccc(-c2cnc3[nH]cc(C4=CCN(C(=O)OC5CCCC5)CC4)c3c2)c1` [Example 177, Cyclopentyl 4-(5-(3-(N-methylsulfamoyl)phenyl)-1H-pyrrolo[2,3-b]pyridin-3-yl)-5,6-dihydropyridine-1(2H)-carboxylate] stands 97 nM; under `CNS(=O)(=O)c1ccc(-c2cnc3[nH]cc(C4=CCN(C(=O)OC5CCCC5)CC4)c3c2)cc1` [Example 178, Cyclopentyl 4-(5-(4-(N-methylsulfamoyl)phenyl)-1H-pyrrolo[2,3-b]pyridin-3-yl)-5,6-dihydropyridine-1(2H)-carboxylate], 170 nM; under `O=C(OC1CCCC1)N1CC=C(c2c[nH]c3ncc(-c4cccc(S(=O)(=O)N5CCOCC5)c4)cc23)CC1` [Example 180, Cyclopentyl 4-(5-(3-(morpholinosulfonyl)phenyl)-1H-pyrrolo[2,3-b]pyridin-3-yl)-5,6-dihydropyridine-1(2H)-carboxylate], 400 nM.

`O=C(OC1CCCC1)N1CC=C(c2c[nH]c3ncc(-c4ccc(S(=O)(=O)N5CCOCC5)cc4)cc23)CC1` [Example 181, Cyclopentyl 4-(5-(4-(morpholinosulfonyl)phenyl)-1H-pyrrolo[2,3-b]pyridin-3-yl)-5,6-dihydropyridine-1(2H)-carboxylate]: 370 nM corresponded to half-maximal inhibition (IC50). Under `COc1ccc(-c2cnc3[nH]cc(C4=CCN(C(=O)OC5CCCC5)CC4)c3c2)cc1S(=O)(=O)N1CCOCC1` [Example 182, Cyclopentyl 4-(5-(4-methoxy-3-(morpholinosulfonyl)phenyl)-1H-pyrrolo[2,3-b]pyridin-3-yl)-5,6-dihydropyridine-1(2H)-carboxylate] stands 180 nM; under `O=C(OC1CCCC1)N1CC=C(c2c[nH]c3ncc(-c4ccc(C(=O)N5CCOCC5)cc4)cc23)CC1` [Example 183, Cyclopentyl 4-(5-(4-(morpholine-4-carbonyl)phenyl)-1H-pyrrolo[2,3-b]pyridin-3-yl)-5,6-dihydropyridine-1(2H)-carboxylate], 39 nM. Under `O=C(OC1CCCC1)N1CC=C(c2c[nH]c3ncc(-c4cccc(C(=O)N5CCOCC5)c4)cc23)CC1` [Example 184, Cyclopentyl 4-(5-(3-(morpholine-4-carbonyl)phenyl)-1H-pyrrolo[2,3-b]pyridin-3-yl)-5,6-dihydropyridine-1(2H)-carboxylate] stands 100 nM; under `O=C(OC1CCCC1)N1CC=C(c2c[nH]c3ncc(-c4csc(CN5CCOCC5)c4)cc23)CC1` [Example 185, Cyclopentyl 4-(5-(5-(morpholinomethyl)thiophen-3-yl)-1H-pyrrolo[2,3-b]pyridin-3-yl)-5,6-dihydropyridine-1(2H)-carboxylate], 81 nM. `O=C(OC1CCCC1)N1CC=C(c2c[nH]c3ncc(-c4ccc(CN5CCOCC5)s4)cc23)CC1` [Example 186, Cyclopentyl 4-(5-(5-(morpholinomethyl)thiophen-2-yl)-1H-pyrrolo[2,3-b]pyridin-3-yl)-5,6-dihydropyridine-1(2H)-carboxylate]: the IC50 came to 160 nM. Under `COc1ccc(-c2cnc3[nH]cc(C4=CCCN(C(=O)OC(C)(C)C)CC4)c3c2)cc1OC` [Example 187, tert-Butyl 4-(5-(3,4-dimethoxyphenyl)-1H-pyrrolo[2,3-b]pyridin-3-yl)-2,3,6,7-tetrahydro-1H-azepine-1-carboxylate] stands 3300 nM; under `COc1ccc(-c2cnc3[nH]cc(C4=CCN(C(=O)OC(C)(C)C)CCC4)c3c2)cc1OC` [Example 188, tert-Butyl 5-(5-(3,4-dimethoxyphenyl)-1H-pyrrolo[2,3-b]pyridin-3-yl)-2,3,4,7-tetrahydro-1H-azepine-1-carboxylate], 4900 nM; under `O=C(c1cccs1)N1CC=C(c2c[nH]c3ncc(-c4ccc(F)c(F)c4)cc23)CC1` [Example 189, (4-(5-(3,4-Difluorophenyl)-1H-pyrrolo[2,3-b]pyridin-3-yl)-5,6-dihydropyridin-1(2H)-yl)(thiophen-2-yl)methanone], over 10000 nM. `COc1ccc(-c2cnc3[nH]cc(C4=CCN(C(=O)c5cccs5)CC4)c3c2)cc1OC` [Example 191, (4-(5-(3,4-Dimethoxyphenyl)-1H-pyrrolo[2,3-b]pyridin-3-yl)-5,6-dihydropyridin-1(2H)-yl)(thiophen-2-yl)methanone] gave an IC50 of 110 nM. That is a sub-micromolar value.

On to `COc1ccc(-c2cnc3[nH]cc(C4=CCN(C(=O)c5cccs5)CC4)c3c2)cc1F` [Example 192, (4-(5-(3-Fluoro-4-methoxyphenyl)-1H-pyrrolo[2,3-b]pyridin-3-yl)-5,6-dihydropyridin-1(2H)-yl)(thiophen-2-yl)methanone], for which the half-inhibitory concentration (IC50) stood at 460 nM. Against the preceding compound, the IC50 is about 4.2-fold higher. Under `CS(=O)(=O)c1cccc(-c2cnc3[nH]cc(C4=CCN(C(=O)c5cccs5)CC4)c3c2)c1` [Example 193, (4-(5-(3-(Methylsulfonyl)phenyl)-1H-pyrrolo[2,3-b]pyridin-3-yl)-5,6-dihydropyridin-1(2H)-yl)(thiophen-2-yl)methanone] stands 36 nM; under `CS(=O)(=O)c1ccc(-c2cnc3[nH]cc(C4=CCN(C(=O)c5cccs5)CC4)c3c2)cc1` [Example 194, (4-(5-(4-(methylsulfonyl)phenyl)-1H-pyrrolo[2,3-b]pyridin-3-yl)-5,6-dihydropyridin-1(2H)-yl)(thiophen-2-yl)methanone], over 10000 nM; under `CCS(=O)(=O)c1cccc(-c2cnc3[nH]cc(C4=CCN(C(=O)c5cccs5)CC4)c3c2)c1` [Example 195, (4-(5-(3-(ethylsulfonyl)phenyl)-1H-pyrrolo[2,3-b]pyridin-3-yl)-5,6-dihydropyridin-1(2H)-yl)(thiophen-2-yl)methanone], 61 nM. In turn, `O=C(c1cccs1)N1CC=C(c2c[nH]c3ncc(-c4ccc(S(=O)(=O)C5CC5)cc4)cc23)CC1` [Example 196, (4-(5-(4-(cyclopropylsulfonyl)phenyl)-1H-pyrrolo[2,3-b]pyridin-3-yl)-5,6-dihydropyridin-1(2H)-yl)(thiophen-2-yl)methanone] came in with an IC50 of 250 nM.

In the case of `NS(=O)(=O)c1ccc(-c2cnc3[nH]cc(C4=CCN(C(=O)c5cccs5)CC4)c3c2)cc1` [Example 197, 4-(3-(1-(thiophene-2-carbonyl)-1,2,3,6-tetrahydropyridin-4-yl)-1H-pyrrolo[2,3-b]pyridin-5-yl)benzensulfonamide], it took 28 nM to reach half-maximal inhibition (IC50). Under `NS(=O)(=O)c1cccc(-c2cnc3[nH]cc(C4=CCN(C(=O)c5cccs5)CC4)c3c2)c1` [Example 198, 3-(3-(1-(thiophene-2-carbonyl)-1,2,3,6-tetrahydropyridin-4-yl)-1H-pyrrolo[2,3-b]pyridin-5-yl)benzensulfonamide] stands 15 nM. `CNS(=O)(=O)c1cccc(-c2cnc3[nH]cc(C4=CCN(C(=O)c5cccs5)CC4)c3c2)c1` [Example 199, N-methyl-3-(3-(1-(thiophene-2-carbonyl)-1,2,3,6-tetrahydropyridin-4-yl)-1H-pyrrolo[2,3-b]pyridin-5-yl)benzensulfonamide] registered a 50% inhibitory concentration (IC50) of 34 nM. Under `CNS(=O)(=O)c1ccc(-c2cnc3[nH]cc(C4=CCN(C(=O)c5cccs5)CC4)c3c2)cc1` [Example 200, N-methyl-4-(3-(1-(thiophene-2-carbonyl)-1,2,3,6-tetrahydropyridin-4-yl)-1H-pyrrolo[2,3-b]pyridin-5-yl)benzensulfonamide] stands 45 nM. Compound `CS(=O)(=O)Nc1cccc(-c2cnc3[nH]cc(C4=CCN(C(=O)c5cccs5)CC4)c3c2)c1` [Example 201, N-(3-(3-(1-(thiophene-2-carbonyl)-1,2,3,6-tetrahydropyridin-4-yl)-1H-pyrrolo[2,3-b]pyridin-5-yl)phenyl)methansulfonamide] had an IC50 of over 10000 nM.

`O=C(c1cccs1)N1CC=C(c2c[nH]c3ncc(-c4cccc(S(=O)(=O)N5CCOCC5)c4)cc23)CC1` [Example 202, (4-(5-(3-(morpholinosulfonyl)phenyl)-1H-pyrrolo[2,3-b]pyridin-3-yl)-5,6-dihydropyridin-1(2H)-yl)(thiophen-2-yl)methanone] yielded an IC50 of 230 nM. As for `COc1ccc(-c2cnc3[nH]cc(C4=CCN(C(=O)c5cccs5)CC4)c3c2)cc1S(=O)(=O)N1CCOCC1` [Example 203, (4-(5-(4-methoxy-3-(morpholinosulfonyl)phenyl)-1H-pyrrolo[2,3-b]pyridin-3-yl)-5,6-di hydropyridin-1(2H)-yl)(thiophen-2-yl)methanone], the half-maximal inhibitory concentration (IC50) worked out at 39 nM.
